*1 amine or outer side, *2 acyl side, *3 side chain or, on linkers, in order; H or OH if unused. Where a SMILES comes first, the peptide text is derived from it. Bridges are numbered along the chain shown (N, C = ends). [ ]: non-standard residue; d: D form. The star is where a group is joined. hTyr(3S-OH,4S-OH,3'-OSO3H) = N[C@H](C(=O)O)[C@H](O)[C@@H](O)c1ccc(O)c(OS(=O)(=O)O)c1; Orn(4R-OH,5R-OH) = O=C([C@H](C[C@@H](O)[C@@H](O)N[*:3])N[*:1])[*:2]; Pro(3S-OH,4S-Me) = C[C@H]1CN[C@H](C(=O)O)[C@H]1O; X1 = CCCCCOc1ccc(-c2cc(-c3ccc(C(=O)*)cc3)no2)cc1; Gln(3R-OH) = NC(=O)C[C@@H](O)[C@H](N)C(=O)O; Hyp = O=C(O)[C@@H]1C[C@@H](O)CN1
Columns and labels:
[1] = target: Sodium-dependent serotonin transporter (Homo sapiens, UniProt P31645)
Chain of Sodium-dependent serotonin transporter (P31645 whole entry): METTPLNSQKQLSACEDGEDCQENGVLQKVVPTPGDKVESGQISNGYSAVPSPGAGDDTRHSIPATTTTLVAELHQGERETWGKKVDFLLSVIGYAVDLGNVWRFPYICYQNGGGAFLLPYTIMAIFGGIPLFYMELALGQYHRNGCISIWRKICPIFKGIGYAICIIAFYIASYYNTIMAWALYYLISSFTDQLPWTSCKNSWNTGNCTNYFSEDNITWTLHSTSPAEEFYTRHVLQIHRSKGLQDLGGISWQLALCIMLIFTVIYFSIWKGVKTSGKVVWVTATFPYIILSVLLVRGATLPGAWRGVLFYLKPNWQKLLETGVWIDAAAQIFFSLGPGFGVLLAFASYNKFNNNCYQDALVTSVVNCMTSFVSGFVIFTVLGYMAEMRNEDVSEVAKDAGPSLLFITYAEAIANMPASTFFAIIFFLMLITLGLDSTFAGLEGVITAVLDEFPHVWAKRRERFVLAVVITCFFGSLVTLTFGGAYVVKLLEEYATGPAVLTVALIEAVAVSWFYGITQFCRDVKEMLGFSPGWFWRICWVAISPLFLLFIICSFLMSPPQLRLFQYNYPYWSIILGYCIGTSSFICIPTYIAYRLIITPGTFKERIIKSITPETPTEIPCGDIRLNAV

[2] = target: Vascular endothelial growth factor receptor 2 (Homo sapiens, UniProt P35968); assay type: functional
Chain of Vascular endothelial growth factor receptor 2 (P35968 whole entry): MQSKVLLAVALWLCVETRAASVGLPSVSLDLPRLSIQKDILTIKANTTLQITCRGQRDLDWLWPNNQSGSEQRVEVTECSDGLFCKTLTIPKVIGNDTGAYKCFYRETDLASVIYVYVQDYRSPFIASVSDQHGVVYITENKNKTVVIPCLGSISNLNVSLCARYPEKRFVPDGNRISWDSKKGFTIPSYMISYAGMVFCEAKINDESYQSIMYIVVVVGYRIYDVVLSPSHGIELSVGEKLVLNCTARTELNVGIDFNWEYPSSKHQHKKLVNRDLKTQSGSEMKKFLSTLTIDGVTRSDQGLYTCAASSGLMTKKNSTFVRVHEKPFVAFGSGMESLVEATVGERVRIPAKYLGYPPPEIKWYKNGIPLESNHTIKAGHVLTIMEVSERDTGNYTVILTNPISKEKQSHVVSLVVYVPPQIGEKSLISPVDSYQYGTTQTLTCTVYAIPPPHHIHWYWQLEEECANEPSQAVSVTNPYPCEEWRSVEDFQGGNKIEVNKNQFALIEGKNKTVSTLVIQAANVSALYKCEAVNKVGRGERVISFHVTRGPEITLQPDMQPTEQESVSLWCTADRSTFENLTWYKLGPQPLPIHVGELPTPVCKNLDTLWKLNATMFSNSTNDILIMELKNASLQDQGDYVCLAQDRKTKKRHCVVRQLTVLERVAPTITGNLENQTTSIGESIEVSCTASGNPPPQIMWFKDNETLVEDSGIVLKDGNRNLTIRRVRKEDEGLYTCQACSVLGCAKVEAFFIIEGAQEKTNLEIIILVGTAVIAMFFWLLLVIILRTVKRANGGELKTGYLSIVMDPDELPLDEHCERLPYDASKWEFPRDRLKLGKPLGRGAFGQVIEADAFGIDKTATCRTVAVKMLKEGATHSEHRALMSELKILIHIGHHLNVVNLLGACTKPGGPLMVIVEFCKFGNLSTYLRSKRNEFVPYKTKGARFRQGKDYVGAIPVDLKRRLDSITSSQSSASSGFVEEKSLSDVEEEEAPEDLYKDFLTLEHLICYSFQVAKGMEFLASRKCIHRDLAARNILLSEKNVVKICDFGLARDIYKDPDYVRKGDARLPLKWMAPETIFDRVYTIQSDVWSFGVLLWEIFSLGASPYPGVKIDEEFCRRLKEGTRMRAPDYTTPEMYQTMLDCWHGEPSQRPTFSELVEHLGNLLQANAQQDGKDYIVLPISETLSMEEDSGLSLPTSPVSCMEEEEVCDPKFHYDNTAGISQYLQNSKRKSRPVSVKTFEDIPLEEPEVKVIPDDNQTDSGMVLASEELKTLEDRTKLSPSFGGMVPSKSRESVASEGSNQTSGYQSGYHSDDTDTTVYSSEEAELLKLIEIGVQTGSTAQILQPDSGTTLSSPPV

[3] = target: T1, Type-1 angiotensin II receptor (Homo sapiens, UniProt P30556)
T1 sequence (P30556 whole entry): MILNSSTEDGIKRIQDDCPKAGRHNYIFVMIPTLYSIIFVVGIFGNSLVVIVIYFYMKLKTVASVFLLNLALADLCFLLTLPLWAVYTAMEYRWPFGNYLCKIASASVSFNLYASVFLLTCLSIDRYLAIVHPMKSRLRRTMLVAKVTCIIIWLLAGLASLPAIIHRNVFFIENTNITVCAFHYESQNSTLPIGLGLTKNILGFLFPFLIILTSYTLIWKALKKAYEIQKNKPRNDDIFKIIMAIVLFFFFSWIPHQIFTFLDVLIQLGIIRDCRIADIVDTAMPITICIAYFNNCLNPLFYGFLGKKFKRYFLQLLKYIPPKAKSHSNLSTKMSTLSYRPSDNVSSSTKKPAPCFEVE

[4] = target: Beta-2 adrenergic receptor (Homo sapiens, UniProt P07550); assay type: functional, cell-based
Chain of Beta-2 adrenergic receptor (P07550 whole entry): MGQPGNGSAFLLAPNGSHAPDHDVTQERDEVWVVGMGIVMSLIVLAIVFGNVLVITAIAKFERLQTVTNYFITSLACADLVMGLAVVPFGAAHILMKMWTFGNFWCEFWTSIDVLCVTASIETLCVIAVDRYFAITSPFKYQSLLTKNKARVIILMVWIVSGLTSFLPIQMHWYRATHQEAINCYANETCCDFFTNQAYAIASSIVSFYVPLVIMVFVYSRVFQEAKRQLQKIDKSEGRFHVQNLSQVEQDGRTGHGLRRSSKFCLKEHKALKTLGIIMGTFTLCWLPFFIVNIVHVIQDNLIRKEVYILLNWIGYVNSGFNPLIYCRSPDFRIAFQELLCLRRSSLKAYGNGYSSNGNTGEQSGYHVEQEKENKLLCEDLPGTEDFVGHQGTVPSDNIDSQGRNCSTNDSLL

[5] = target: T2, Amine oxidase [flavin-containing] A (Homo sapiens, UniProt P21397); assay type: functional
T2 sequence (P21397 whole entry): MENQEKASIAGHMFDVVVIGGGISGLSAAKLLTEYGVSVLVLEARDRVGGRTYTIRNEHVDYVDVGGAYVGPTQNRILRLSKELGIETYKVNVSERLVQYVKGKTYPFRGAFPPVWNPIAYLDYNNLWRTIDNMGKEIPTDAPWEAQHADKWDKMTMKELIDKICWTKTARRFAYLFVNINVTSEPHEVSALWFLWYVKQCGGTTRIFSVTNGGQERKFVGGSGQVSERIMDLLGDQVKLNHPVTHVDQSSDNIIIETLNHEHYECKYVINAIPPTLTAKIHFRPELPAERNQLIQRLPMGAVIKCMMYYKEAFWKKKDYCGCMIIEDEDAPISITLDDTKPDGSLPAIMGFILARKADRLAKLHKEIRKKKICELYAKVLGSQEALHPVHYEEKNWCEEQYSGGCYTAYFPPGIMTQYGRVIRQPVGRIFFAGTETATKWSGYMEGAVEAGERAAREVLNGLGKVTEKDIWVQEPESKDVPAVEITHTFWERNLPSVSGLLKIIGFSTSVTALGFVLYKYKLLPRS

[6] = target: T3, Alpha-2A adrenergic receptor (Homo sapiens, UniProt P08913); assay type: functional, cell-based
T3 sequence (P08913 whole entry): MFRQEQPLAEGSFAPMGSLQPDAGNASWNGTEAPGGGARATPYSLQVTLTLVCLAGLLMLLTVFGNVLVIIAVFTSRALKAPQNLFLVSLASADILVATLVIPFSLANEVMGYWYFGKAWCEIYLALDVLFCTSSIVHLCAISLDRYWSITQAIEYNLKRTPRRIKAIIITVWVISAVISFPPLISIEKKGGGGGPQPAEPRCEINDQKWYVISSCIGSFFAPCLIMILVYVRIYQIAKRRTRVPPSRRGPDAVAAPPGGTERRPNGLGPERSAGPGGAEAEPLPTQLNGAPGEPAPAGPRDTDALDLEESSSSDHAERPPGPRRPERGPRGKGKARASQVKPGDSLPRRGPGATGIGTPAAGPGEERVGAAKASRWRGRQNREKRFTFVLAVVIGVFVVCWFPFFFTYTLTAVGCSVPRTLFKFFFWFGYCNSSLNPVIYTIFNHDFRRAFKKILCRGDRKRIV

[7] = target: Sodium-dependent dopamine transporter (Homo sapiens, UniProt Q01959)
Chain of Sodium-dependent dopamine transporter (Q01959 whole entry): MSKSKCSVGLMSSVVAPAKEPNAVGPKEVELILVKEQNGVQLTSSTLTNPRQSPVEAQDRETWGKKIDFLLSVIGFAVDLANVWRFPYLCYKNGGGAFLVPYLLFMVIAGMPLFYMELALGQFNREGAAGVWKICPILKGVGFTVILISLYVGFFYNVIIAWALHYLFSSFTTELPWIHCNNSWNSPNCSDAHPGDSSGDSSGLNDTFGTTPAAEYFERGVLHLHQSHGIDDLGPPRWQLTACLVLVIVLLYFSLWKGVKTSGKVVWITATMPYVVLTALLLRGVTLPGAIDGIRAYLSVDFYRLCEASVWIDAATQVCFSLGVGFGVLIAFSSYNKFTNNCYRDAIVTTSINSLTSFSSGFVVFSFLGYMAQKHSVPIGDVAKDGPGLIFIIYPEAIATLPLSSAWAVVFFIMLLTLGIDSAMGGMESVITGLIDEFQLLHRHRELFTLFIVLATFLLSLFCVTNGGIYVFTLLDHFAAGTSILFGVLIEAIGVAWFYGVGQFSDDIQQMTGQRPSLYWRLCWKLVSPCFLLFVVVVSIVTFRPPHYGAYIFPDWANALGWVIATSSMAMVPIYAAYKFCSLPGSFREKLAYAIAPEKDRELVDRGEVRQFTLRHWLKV

[8] = target: T4, 5-hydroxytryptamine receptor 1A (Homo sapiens, UniProt P08908); assay type: functional, cell-based
T4 sequence (P08908 whole entry): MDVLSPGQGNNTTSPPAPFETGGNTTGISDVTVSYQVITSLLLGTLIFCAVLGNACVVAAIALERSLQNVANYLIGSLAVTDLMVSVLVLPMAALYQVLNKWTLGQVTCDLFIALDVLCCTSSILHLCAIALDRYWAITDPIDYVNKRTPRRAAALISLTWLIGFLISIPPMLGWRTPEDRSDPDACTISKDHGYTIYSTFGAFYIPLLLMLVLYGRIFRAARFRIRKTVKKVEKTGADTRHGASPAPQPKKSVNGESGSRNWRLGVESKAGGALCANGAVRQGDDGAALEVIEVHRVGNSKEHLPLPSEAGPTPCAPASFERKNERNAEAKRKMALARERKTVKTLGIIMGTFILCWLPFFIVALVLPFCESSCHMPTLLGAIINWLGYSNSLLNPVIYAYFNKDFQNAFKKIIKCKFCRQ

[9] = target: T5, Equilibrative nucleoside transporter 1 (Homo sapiens, UniProt Q99808)
T5 sequence (Q99808 whole entry): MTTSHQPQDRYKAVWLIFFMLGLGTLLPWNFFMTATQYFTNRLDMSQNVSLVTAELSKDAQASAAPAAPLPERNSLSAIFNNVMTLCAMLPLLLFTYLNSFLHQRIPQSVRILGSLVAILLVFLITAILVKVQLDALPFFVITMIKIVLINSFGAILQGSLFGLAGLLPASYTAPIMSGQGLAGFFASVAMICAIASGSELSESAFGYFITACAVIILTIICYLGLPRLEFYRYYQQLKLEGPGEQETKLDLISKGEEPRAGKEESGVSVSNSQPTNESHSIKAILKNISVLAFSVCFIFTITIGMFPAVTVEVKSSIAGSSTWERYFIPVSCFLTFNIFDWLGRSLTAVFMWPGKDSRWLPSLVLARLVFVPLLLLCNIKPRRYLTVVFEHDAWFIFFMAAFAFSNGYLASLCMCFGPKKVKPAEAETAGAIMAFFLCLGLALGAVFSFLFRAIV

[10] = target: Beta-1 adrenergic receptor (Homo sapiens, UniProt P08588); assay type: functional
Chain of Beta-1 adrenergic receptor (P08588 whole entry): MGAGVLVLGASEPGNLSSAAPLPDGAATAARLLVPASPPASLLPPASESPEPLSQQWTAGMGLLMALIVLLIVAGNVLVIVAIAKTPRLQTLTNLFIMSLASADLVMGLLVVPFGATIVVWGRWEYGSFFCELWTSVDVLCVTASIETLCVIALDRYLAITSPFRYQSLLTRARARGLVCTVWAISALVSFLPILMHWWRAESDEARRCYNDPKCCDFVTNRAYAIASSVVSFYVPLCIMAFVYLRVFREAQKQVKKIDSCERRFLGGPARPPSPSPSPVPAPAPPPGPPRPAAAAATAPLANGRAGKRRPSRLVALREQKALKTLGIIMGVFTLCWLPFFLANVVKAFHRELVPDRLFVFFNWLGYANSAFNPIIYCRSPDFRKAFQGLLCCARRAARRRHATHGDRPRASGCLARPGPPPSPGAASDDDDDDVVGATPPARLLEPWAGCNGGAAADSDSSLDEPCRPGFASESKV
Note: assay procedure not described here.

Row | Structure (SMILES) | AC50 [1] | AC50 [2] | AC50 [3] | AC50 [4] | AC50 [5] | AC50 [6] | AC50 [7] | AC50 [8] | AC50 [9] | AC50 [10]
1 | N=C(N)NCc1cccc([123I])c1 [IOBENGUANE I 123] | > 30 µM | > 30 µM |  |  |  |  |  |  |  | 
2 | CC(C)(N)C(=O)N[C@H](Cc1c[nH]c2ccccc12)C(=O)N[C@H](Cc1c[nH]c2ccccc12)NC=O [MACIMORELIN] | > 30 µM |  |  |  |  |  |  |  |  | 
3 | C=C1c2c(Cl)ccc(O)c2C(=O)C2=C(O)[C@]3(O)C(=O)C(C(N)=O)=C(O)[C@@H](N(C)C)[C@@H]3[C@@H](O)[C@H]12 [MECLOCYCLINE] | > 30 µM | > 30 µM |  |  |  |  |  |  |  | 
4 | CC[C@@H](CO)NC(=O)[C@@H]1C=C2c3cccc4[nH]cc(c34)C[C@H]2N(C)C1 [METHYLERGONOVINE] |  |  | > 30 µM | > 30 µM | > 30 µM | 17 µM | > 30 µM | 0.0144 µM |  | 
5 | CCCCCOc1ccc(-c2cc(-c3ccc(C(=O)N[C@H]4C[C@@H](O)[C@@H](O)NC(=O)[C@@H]5[C@@H](O)[C@@H](C)CN5C(=O)[C@H]([C@H](O)CC(N)=O)NC(=O)[C@H]([C@H](O)[C@@H](O)c5ccc(O)c(OS(=O)(=O)O)c5)NC(=O)[C@@H]5C[C@@H](O)CN5C(=O)[C@H]([C@@H](C)O)NC4=O)cc3)no2)cc1 [MICAFUNGIN] (X1-[Orn(4R-OH,5R-OH)]T[Hyp][hTyr(3S-OH,4S-OH,3'-OSO3H)][Gln(3R-OH)][Pro(3S-OH,4S-Me)]; lactam 1-C) | > 30 µM | > 30 µM |  |  |  |  |  |  |  | 
6 | C#C[C@]1(O)CC[C@H]2[C@@H]3CCC4=C(CCC(=O)C4)[C@H]3CC[C@@]21C [NORETHYNODREL] |  | > 30 µM |  |  |  |  |  |  |  | 
7 | CNCCC=C1c2ccccc2CCc2ccccc21 [NORTRIPTYLINE] |  |  | > 30 µM |  | > 30 µM |  | 3.2 µM | > 30 µM | > 30 µM | 
8 | COc1ccc(Cc2nccc3cc(OC)c(OC)cc23)cc1OC [PAPAVERINE] |  |  | > 30 µM |  | > 30 µM | > 30 µM | > 30 µM | > 30 µM | 10 µM | > 30 µM
9 | CNC[C@H](O)c1cccc(O)c1 [PHENYLEPHRINE] | > 30 µM | > 30 µM | > 30 µM |  | > 10 µM |  | > 10 µM | > 30 µM | > 30 µM | 
10 | CC(C)COc1ccc(CNC(=O)N(Cc2ccc(F)cc2)C2CCN(C)CC2)cc1 [PIMAVANSERIN] | > 30 µM | > 30 µM |  |  |  |  |  |  |  | 
11 | NC(=O)c1ncn([C@@H]2O[C@H](CO)[C@@H](O)[C@H]2O)n1 [RIBAVIRIN] |  |  | > 10 µM |  | > 10 µM | > 10 µM | > 10 µM | > 10 µM | > 30 µM | > 10 µM
12 | O=C(Nc1c(Cl)cncc1Cl)c1ccc(OC(F)F)c(OCC2CC2)c1 [ROFLUMILAST] |  |  | > 30 µM |  | > 30 µM | > 30 µM | > 30 µM | > 30 µM |  | > 30 µM
13 | CCCCNc1ccc(C(=O)OCCN(C)C)cc1 [TETRACAINE] |  |  | > 30 µM |  | 0.97 µM | > 10 µM | > 10 µM | > 10 µM | > 30 µM | > 10 µM
14 | CC1(C)O[C@@H]2[C@@H](CO[C@@]3(COS(N)(=O)=O)OC(C)(C)O[C@@H]23)O1 [TOPIRAMATE] | > 30 µM |  | > 30 µM |  | > 10 µM | > 10 µM | > 10 µM | > 10 µM | > 30 µM | > 10 µM
15 | NCCc1ccc(O)cc1 [TYRAMINE] | > 30 µM | > 30 µM |  |  |  |  |  |  |  | 
